{
  "source": "paper PMC4063187",
  "about": "(Journal of the American Chemical Society, 2014)",
  "key": {"[1]": {"biological_target": "T1, ecDHFR (wild-type, l-DHFR) (Escherichia coli, UniProt P0ABQ4)", "T1 sequence (P0ABQ4 1-159)": "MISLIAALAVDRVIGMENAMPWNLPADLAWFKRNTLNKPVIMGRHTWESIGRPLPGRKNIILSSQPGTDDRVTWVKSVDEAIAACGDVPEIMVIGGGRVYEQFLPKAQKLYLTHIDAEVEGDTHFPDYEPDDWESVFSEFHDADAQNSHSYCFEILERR", "test": "steady-state absorbance at […] nm", "assay_type": "biochemical", "settings": "read-out: 25 °C, pH 7 / l-DHFR, MTEN buffer pH 7, 25 °C"}, "[2]": {"biological_target": "T1, ecDHFR (wild-type, l-DHFR)", "test": "stopped-flow tryptophan fluorescence quenching, koff/kon", "assay_type": "binding"}, "[3]": {"biological_target": "T1, ecDHFR (wild-type, l-DHFR)", "test": "stopped-flow fluorescence", "assay_type": "binding"}},
  "note": "Where two headings read alike, the source gives them in different places.",
  "data": [
    {"smiles": "Nc1nc2c(c(=O)[nH]1)N=C(CNc1ccc(C(=O)N[C@@H](CCC(=O)O)C(=O)O)cc1)CN2", "note": "[DHF]", "values": [
      {"measurement": "Km", "setting": "[1]; 100 μM NADPH", "result": "0.53 ± 0.04", "unit": "µM"}
    ]},
    {"smiles": "Nc1nc2ncc(CNc3ccc(C(=O)N[C@@H](CCC(=O)O)C(=O)O)cc3)nc2c(=O)[nH]1", "note": "[FA]", "values": [
      {"measurement": "Kd", "setting": "[2]", "result": "3220 ± 90", "unit": "nM"}
    ]},
    {"smiles": "NC(=O)C1=CN([C@@H]2O[C@H](COP(=O)(O)OP(=O)(O)OC[C@H]3O[C@@H](n4cnc5c(N)ncnc54)[C@H](OP(=O)(O)O)[C@@H]3O)[C@@H](O)[C@H]2O)C=CC1", "note": "[NADPH]", "values": [
      {"measurement": "Kd", "setting": "[3]", "result": "180 ± 90", "unit": "nM"},
      {"measurement": "Km", "setting": "[1]; 100 μM DHF", "result": "7.2 ± 0.8", "unit": "µM"}
    ]}
  ]
}
